We go through 19 molecules from ChEMBL document CHEMBL1137049 (Bioorg Med Chem Lett, 2004).

For one assay, the target named is Histamine H4 receptor (Homo sapiens, UniProt Q9H3N8). The experiment in a line: Binding affinity towards human histamine H4 receptor was determined by [3H]Na-methylhistamine binding to SK-N-MC cell membranes.
Assay [1] deals with T1, Histamine H3 receptor (Homo sapiens, UniProt Q9Y5N1). The experiment in a line: Binding affinity towards human histamine H3 receptor was determined by [3H]Na-methylhistamine binding to SK-N-MC cell membranes.
Assay [2] deals with T1, Histamine H3 receptor. The experiment in a line: Intrinsic activity against human histamine H3 receptor.
Assay [3] addresses T1, Histamine H3 receptor. The experiment in a line: Effective concentration required against human histamine H3 receptor was determined by the inhibition of the cAMP stimulated beta-galactosidase transcription in SK-N-MC cells. The class given is cell-based.

SMILES strings stand for the structures.

A word on the Ki: it is the dissociation constant of the complex between target and ligand, obtained from inhibition or displacement. Read a low Ki as a stronger hold on the target. By EC50 is commonly meant the concentration needed to bring the measured effect to its halfway point.

T1 sequence (Q9Y5N1 whole entry): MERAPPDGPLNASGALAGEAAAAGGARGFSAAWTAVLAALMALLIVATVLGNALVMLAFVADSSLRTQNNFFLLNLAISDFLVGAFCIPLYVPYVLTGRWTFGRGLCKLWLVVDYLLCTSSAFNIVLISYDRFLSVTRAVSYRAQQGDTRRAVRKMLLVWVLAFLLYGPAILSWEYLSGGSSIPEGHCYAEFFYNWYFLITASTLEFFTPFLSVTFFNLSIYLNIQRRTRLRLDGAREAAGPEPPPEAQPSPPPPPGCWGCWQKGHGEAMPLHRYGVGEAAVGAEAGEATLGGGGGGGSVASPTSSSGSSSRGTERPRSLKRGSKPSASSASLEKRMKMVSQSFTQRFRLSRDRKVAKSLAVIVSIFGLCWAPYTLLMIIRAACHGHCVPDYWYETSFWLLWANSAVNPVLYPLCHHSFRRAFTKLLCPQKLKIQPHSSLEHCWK
Histamine H4 receptor, sequence (Q9H3N8 whole entry): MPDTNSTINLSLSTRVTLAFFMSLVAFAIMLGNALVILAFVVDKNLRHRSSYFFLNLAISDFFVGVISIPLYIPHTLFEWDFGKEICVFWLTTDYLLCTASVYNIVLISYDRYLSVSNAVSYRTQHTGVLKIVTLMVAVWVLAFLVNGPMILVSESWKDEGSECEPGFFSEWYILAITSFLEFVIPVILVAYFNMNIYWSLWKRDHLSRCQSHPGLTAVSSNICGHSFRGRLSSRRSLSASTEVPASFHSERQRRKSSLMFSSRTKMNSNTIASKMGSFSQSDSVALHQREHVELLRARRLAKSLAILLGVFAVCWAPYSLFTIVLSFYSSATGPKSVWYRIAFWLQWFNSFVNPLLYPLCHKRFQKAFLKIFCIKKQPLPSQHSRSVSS

Regarding `CN1CCN(C(=O)c2cc3cc(I)ccc3[nH]2)CC1`, the Ki was 0.0631 µM at Histamine H4 receptor and 2.51 µM on Histamine H3 receptor [1]. For the same molecule, the Intrinsic activity at Histamine H3 receptor [2] is -0.8. Moreover, at Histamine H3 receptor [3], a half-maximal effect (EC50) was put at 3.16 µM.
`CN1CCC(C(O)c2cc3cc(Cl)ccc3[nH]2)CC1` (stereo not drawn): the inhibition constant Ki on Histamine H4 receptor is 5.01 µM; at Histamine H3 receptor [1], 1.58 µM. The Intrinsic activity on Histamine H3 receptor [2] was -0.5. The same molecule gave an EC50 on Histamine H3 receptor [3] of 1 µM.
Regarding `O=C(c1cc2cc(Cl)ccc2[nH]1)N1CCOCC1`, the inhibitory constant (Ki) on Histamine H4 receptor is > 100 µM.
As to `CN(C)CCCNC(=O)c1cc2cc(Cl)ccc2[nH]1`, the Ki at Histamine H4 receptor is > 100 µM.
As to `CN1CCN(NC(=O)c2nc3cc(Cl)ccc3[nH]2)CC1`, at Histamine H4 receptor, the Ki is > 100 µM.
Regarding `CN1CCN(C(=O)c2cc3cc(Br)ccc3[nH]2)CC1`, the values for the Ki on Histamine H4 receptor and on Histamine H3 receptor [1] were 0.0316 µM and 3.16 µM, respectively. The Intrinsic activity on Histamine H3 receptor [2] is -0.7. Moreover, the EC50 on Histamine H3 receptor [3] was 1.58 µM.
With `CN1CCN(C(=O)Nc2nc3cc(Cl)ccc3[nH]2)CC1`, the affinity on Histamine H4 receptor, expressed as Ki, was 20 µM.
On to `CN1CCC(C(=O)c2cc3cc(Cl)ccc3[nH]2)CC1`, for which the Ki is 0.2 µM at Histamine H4 receptor and 3.16 µM at Histamine H3 receptor [1]. For the same molecule, the Intrinsic activity at Histamine H3 receptor [2] was -0.5. On Histamine H3 receptor [3], the EC50 was 1 µM.
In the case of `CN(C)CCNC(=O)c1cc2cc(Cl)ccc2[nH]1`, the Ki on Histamine H4 receptor was 3.16 µM; at Histamine H3 receptor [1], 5.01 µM. Further, the Intrinsic activity at Histamine H3 receptor [2] was 0.
Regarding `CN1CCN(C(=O)c2nc3cc(Cl)ccc3[nH]2)CC1`, the Ki at Histamine H4 receptor was 0.0794 µM; on Histamine H3 receptor [1], 3.98 µM. For the same molecule, the EC50 on Histamine H3 receptor [3] was 3.16 µM.
On to `CN1CCN(C(=O)c2nc3ccc(Cl)cc3[nH]2)CC1`, for which, at Histamine H3 receptor [2], the Intrinsic activity was -1.
Consider `CN(C)CCN(C)C(=O)c1nc2cc(Cl)ccc2[nH]1`, for which the affinity on Histamine H4 receptor corresponds to a Ki of 25.1 µM.
For the molecule `O=C(c1cc2cc(Cl)ccc2[nH]1)N1CCCCC1`, the figures for the Ki at Histamine H4 receptor and at Histamine H3 receptor [1] were 7.94 µM and 6.31 µM, respectively. Also, on Histamine H3 receptor [2], the Intrinsic activity is -0.6. Also, the EC50 on Histamine H3 receptor [3] is 3.16 µM.
With `CN1CCN(C(=O)c2cc3cc(Cl)ccc3[nH]2)CC1` [JNJ-7777120], the Ki at Histamine H3 receptor [1] was 2 µM. For the same molecule, the Intrinsic activity on Histamine H3 receptor [2] was -0.7. The molecule further showed a half-maximal effective concentration (EC50) at Histamine H3 receptor [3] of 1 µM.
Consider `CN(C)c1cccc(-c2nc3cc(Cl)ccc3[nH]2)c1`, for which the Ki on Histamine H4 receptor is > 100 µM.
Same read-out and setting: as for `CC(=O)Nc1nc2cc(Cl)ccc2[nH]1`, the figure is > 100 µM.
The same measure, in the same setting: as for `CN(C)CCN(C)C(=O)c1cc2cc(Cl)ccc2[nH]1`, the figure is 25.1 µM.
As for `CN(C)CCNC(=O)c1nc2cc(Cl)ccc2[nH]1`, the Ki at Histamine H4 receptor is 1 µM; on Histamine H3 receptor [1] it was 25.1 µM. Moreover, at Histamine H3 receptor [2], the Intrinsic activity is -0.5. This molecule showed an EC50 at Histamine H3 receptor [3] of 3.16 µM.
Turning to `CN1CCN(NC(=O)c2cc3cc(Cl)ccc3[nH]2)CC1`, the Ki at Histamine H4 receptor is 25.1 µM.
